Reference: publication PMC6348771 (Redox Biology, 2018)

Molecular target: T1, glutathione reductase (GR) (Saccharomyces cerevisiae, UniProt P41921)
T1 sequence (P41921 1-483): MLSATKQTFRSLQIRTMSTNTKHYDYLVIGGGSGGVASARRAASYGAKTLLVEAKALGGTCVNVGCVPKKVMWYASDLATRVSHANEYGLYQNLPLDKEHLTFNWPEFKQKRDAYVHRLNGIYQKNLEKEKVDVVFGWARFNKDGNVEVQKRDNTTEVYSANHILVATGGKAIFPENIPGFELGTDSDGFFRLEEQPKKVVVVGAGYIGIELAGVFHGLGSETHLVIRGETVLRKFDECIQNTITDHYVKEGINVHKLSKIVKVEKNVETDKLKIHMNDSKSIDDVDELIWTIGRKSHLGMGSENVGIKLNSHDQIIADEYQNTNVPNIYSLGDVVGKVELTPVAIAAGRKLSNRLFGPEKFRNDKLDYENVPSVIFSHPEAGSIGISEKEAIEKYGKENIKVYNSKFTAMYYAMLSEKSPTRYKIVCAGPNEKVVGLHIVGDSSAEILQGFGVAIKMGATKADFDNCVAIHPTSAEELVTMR
Assay: enzyme activity assay versus GSH concentration
Format: biochemical

IC50: ~10 mM
SMILES: N[C@@H](CCC(=O)N[C@@H](CS)C(=O)NCC(=O)O)C(=O)O [GSH, Glutathione]
